Non-standard residues stand in square brackets, D forms with d. Residues, ends and D or L forms follow the SMILES beside them. *: point of attachment. Coumarin3carbonyl(7-OH) = O=C(c1cc2ccc(O)cc2oc1=O)*; Acetyl(thymin-1-yl) = Cc1cn(CC(=O)*)c(=O)[nH]c1=O; PEG8 = NCCOCCOCCOCCOCCOCCOCCOCCOCCC(=O)O
What was measured:
RT-112 cells = format: cell-based; details: human, 48 h
T24 cells = assay: CCK-8 cytotoxicity assay, T24 cells; format: cell-based, human; details: 48 h; for IC50: human
EJ cells = format: cell-based; details: human, 48 h
[1] = ATP sequestration: ATP hydrolysis by alkaline phosphatase (ALP); format: biochemical; details: ATP 200 μM, ALP 0.5 U/mL, DEA buffer 10 mM pH 9.8, 37 °C, bioluminescence, blank control 13%
[2] = tested on: T24 xenograft mice (incomplete tumor resection); details: after intravenous administration, tumor-recurrence model
Description: In vivo antitumor evaluation of IAS system in regrowth of residual tumor model
To establish the T24 xenograft mouse model, BALB/c nude mice (approximately 6-8
weeks, weighing 16-18 g) were subcutaneously injected with T24 cells (5 × 106) suspended
in 100 μL Matrigel. The mice were randomly divided into five groups, with six mice in each
group. Both body weight and tumor volume were measured for analysis. At 21 d after
inoculation, tumor tissues of approximately 300-500 mm3 were resected, leaving a residual
tumor of approximately 30-50 mm3. After that, the T24 xenograft mice were intravenously
administered with PBS, NLS-FF, FF-T, NLS-T and NLS-FF-T (500 μM in 200 μL PBS)
every two days on day 21, 23, 25, 27, 29 and 31. The tumor volume was calculated using the formula: tumor width2 × tumor length × 0.5.
For two-group comparisons, statistical analysis was performed using one-way ANOVA
followed by post hoc Tukey's test. The GraphPad Prism software 8.0 was used for all

healthy BALB/c nude mice = assay: In vivo toxicology evaluation in healthy mice; details: N = 4
T24 xenograft mice [3] = assay: In vivo antitumor evaluation, T24 subcutaneous xenograft model; details: i.v. 500 μM in 200 μL PBS six times
Description: 3 mm at 8 h post-treatment. The fragments were then fixed with 2.5% glutaraldehyde at 4°C overnight and treated with 1% […] for 2 h after being rinsed thrice with PBS.
Subsequently, graded concentrations of alcohol solutions (50, 70, 80, 90, 100, 100 and 100%) were utilized for graded dehydration (with 10 minutes each). Next, tumor fragments were exposed to a mixture of alcohol/acetone (1:1) for 10 min, a mixture of acetone/EPON-812 (1:1) for 1 h and a mixture of acetone/EPON-812 (1:2) for 1 h. Pure EPON-812 was then utilized to further infiltrate the tumor fragments overnight at 4°C, after which it was cured at 37, 45 and 60°C for 24 h respectively. Finally, the morphology of NLS-FF-T in the tumor slice was observed by bio-Transmission Electron Microscope (bio-TEM) after being stained with 2% uranyl acetate and 3% lead citrate.
To further verify the therapeutic potency of the IAS system, a T24 xenograft mouse […]
When the average tumor volume reached 100-200 mm3, the T24 tumor-bearing mice were […]
The individual tumor growth and body weight were measured every 2 d for analysis, with tumor volume calculated as follows: tumor width2 × tumor length × 0.5. […]
At the end of the treatment period, T24 tumor tissues were collected and washed thrice with PBS. […] The ATP levels were then measured according to the manufacturer’s instructions using an ATP Content Assay Kit. […]

SV-HUC-1 cells = assay: Toxicity assay towards SV-HUC-1 normal bladder cells; format: cell-based; details: viability, different concentrations, 48 h
T24 xenograft mice [4] = assay: In vivo / ex vivo dose-dependent fluorescence imaging in T24 xenograft mice; details: i.v., 500 μM or 250 μM in 200 μL PBS, 1-96 hours, N = 3
[5] = i.v. 1000, 500 or 250 μM in 200 μL PBS six times

| SMILES | IC50 (RT-112 cells) [µM] | IC50 (T24 cells) [µM] | IC50 (EJ cells) [µM] | ATP remaining after ALP catalytic hydrolysis ([1]; NLS-FF-T nanofibers) [%] | ATP remaining after ALP catalytic hydrolysis ([1]; NLS-FF-T nanoparticle group) [%] | cytotoxicity against T24 cells compared with T-ATP (T24 cells; viability, different concentrations) | body weights [2] | histology (H&E) of liver and kidney (healthy BALB/c nude mice; i.v. 1000, 500 or 250 μM in 200 μL PBS six times at 2-day intervals) | blood biochemistry (ALT, AST, ALP, BUN, CRE) (healthy BALB/c nude mice; [5]) | routine blood examination (RBC, WBC, PLT, HGB, NEUT) versus PBS (healthy BALB/c nude mice; [5]) | body weight (T24 xenograft mice [3]) | toxicity towards T24 tumor cells versus SV-HUC-1 normal bladder cells (SV-HUC-1 cells) | tumor accumulation and retention (in vivo fluorescence imaging) (T24 xenograft mice [4]) |
| --- | --- | --- | --- | --- | --- | --- | --- | --- | --- | --- | --- | --- | --- |
| Cc1cn(CC(=O)NCCCC[C@H](NC(=O)c2cc3ccc(O)cc3oc2=O)C(=O)N[C@@H](CC(C)C)C(=O)N[C@H](C(=O)N[C@@H](Cc2ccccc2)C(=O)N[C@@H](Cc2ccccc2)C(=O)NCCOCCOCCOCCOCCOCCOCCOCCOCCC(=O)NCCOCCOCCOCCOCCOCCOCCOCCOCCC(=O)O)C(C)C)c(=O)[nH]c1=O [FF-T, HCA-K(T)LVFF-PEG2] ({Coumarin3carbonyl(7-OH)}-K(Acetyl(thymin-1-yl))LVFF[PEG8][PEG8]-OH) | 356 | 408 | 181 |  |  |  |  |  |  |  |  |  |  |
| Cc1cn(CC(=O)NCCCC[C@H](NC(=O)c2cc3ccc(O)cc3oc2=O)C(=O)N[C@@H](CC(C)C)C(=O)N[C@H](C(=O)N[C@@H](Cc2ccccc2)C(=O)N[C@@H](Cc2ccccc2)C(=O)NCCOCCOCCOCCOCCOCCOCCOCCOCCC(=O)N[C@H](C(=O)N[C@@H](CCCCN)C(=O)N[C@@H](CCCNC(=N)N)C(=O)N[C@@H](CCCCN)C(=O)N[C@@H](CCCCN)C(=O)N[C@@H](CCCCN)C(=O)N2CCC[C@H]2C(=O)O)C(C)C)C(C)C)c(=O)[nH]c1=O [NLS-FF-T, HCA-K(T)LVFF-PEG-VKRKKKP] ({Coumarin3carbonyl(7-OH)}-K(Acetyl(thymin-1-yl))LVFF[PEG8]VKRKKKP-OH) | 43.3 | 34 | 32 | 61 | 27 | significantly higher cytotoxicity against T24 cells than that of T-ATP | no impact | no signs of histological deterioration or damage | typical ranges | no differences | no substantial loss of body weight | enhanced toxicity towards tumor cells (T24) than that of normal cells (SV-HUC-1) | dose-dependent tumor accumulation and long-time tumor retention |
| CC(C)C[C@H](NC(=O)[C@H](CCCCN)NC(=O)c1cc2ccc(O)cc2oc1=O)C(=O)N[C@H](C(=O)N[C@@H](Cc1ccccc1)C(=O)N[C@@H](Cc1ccccc1)C(=O)NCCOCCOCCOCCOCCOCCOCCOCCOCCC(=O)N[C@H](C(=O)N[C@@H](CCCCN)C(=O)N[C@@H](CCCNC(=N)N)C(=O)N[C@@H](CCCCN)C(=O)N[C@@H](CCCCN)C(=O)N[C@@H](CCCCN)C(=O)N1CCC[C@H]1C(=O)O)C(C)C)C(C)C [NLS-FF, HCA-KLVFF-PEG-VKRKKKP] ({Coumarin3carbonyl(7-OH)}-KLVFF[PEG8]VKRKKKP-OH) | 376 | 532 | 278 |  |  |  |  |  |  |  |  |  |  |
| Cc1cn(CC(=O)NCCCC[C@H](NC(=O)c2cc3ccc(O)cc3oc2=O)C(=O)N[C@@H](CC(C)C)C(=O)N[C@H](C(=O)NCCOCCOCCOCCOCCOCCOCCOCCOCCC(=O)N[C@H](C(=O)N[C@@H](CCCCN)C(=O)N[C@@H](CCCNC(=N)N)C(=O)N[C@@H](CCCCN)C(=O)N[C@@H](CCCCN)C(=O)N[C@@H](CCCCN)C(=O)N2CCC[C@H]2C(=O)O)C(C)C)C(C)C)c(=O)[nH]c1=O [NLS-T, HCA-K(T)LV-PEG-VKRKKKP] ({Coumarin3carbonyl(7-OH)}-K(Acetyl(thymin-1-yl))LV[PEG8]VKRKKKP-OH) | 107 | 119 | 122 |  |  |  |  |  |  |  |  |  |  |
